The NIST ThermoML archive (doi:10.1021/acs.jced.7b01034)
Numbers after ± are expanded uncertainties.

What was measured:
[1] = Molar enthalpy of transition or fusion; settings: Crystal; DSC
[2] = molar heat capacity at constant pressure; settings: 100 kPa, Crystal, DSC
[3] = Crystal; DTA

c1ccc2cc3ccccc3cc2c1 [anthracene]
Settings | Molar enthalpy of transition or fusion [kcal/mol] | Normal melting temperature [°C]
[1] | 7.33 ± 0.406 | –
[3] | – | 216.6 ± 0.6

[2]
Settings | molar heat capacity at constant pressure [J/K/mol]
293.15 K | 205.7 ± 10
298.15 K | 209.9 ± 10
303.15 K | 213.9 ± 11
308.15 K | 217.6 ± 11
313.15 K | 221.7 ± 11
318.15 K | 225.4 ± 11
323.15 K | 229.6 ± 12
328.15 K | 234.2 ± 12
333.15 K | 237.9 ± 12
338.15 K | 242.2 ± 12
343.15 K | 246.5 ± 12
348.15 K | 250.7 ± 12
353.15 K | 254.9 ± 13
358.15 K | 258.8 ± 13
363.15 K | 262.9 ± 13
368.15 K | 266.9 ± 13
373.15 K | 270.6 ± 14
378.15 K | 275.2 ± 14
383.15 K | 279.2 ± 14
388.15 K | 283.2 ± 14
393.15 K | 286.9 ± 14
398.15 K | 291.7 ± 15
403.15 K | 295.8 ± 15
408.15 K | 299.3 ± 15
413.15 K | 303.3 ± 15
418.15 K | 306.8 ± 15
423.15 K | 309.9 ± 16
428.15 K | 313.4 ± 16
433.15 K | 317.4 ± 16

O=C(O)c1ccccc1 [benzoic acid]
Settings | Molar enthalpy of transition or fusion [kcal/mol] | Normal melting temperature [°C]
[1] | 4.44 ± 0.151 | –
[3] | – | 122.2 ± 0.5

[2]
Settings | molar heat capacity at constant pressure [J/K/mol]
293.15 K | 143.2 ± 7.2
298.15 K | 145.2 ± 7.3
303.15 K | 147.5 ± 7.4
308.15 K | 149.6 ± 7.5
313.15 K | 151.4 ± 7.6
318.15 K | 153 ± 7.7
323.15 K | 155.4 ± 7.8
328.15 K | 157.8 ± 7.9
333.15 K | 160 ± 8
338.15 K | 162.2 ± 8.1
343.15 K | 164.4 ± 8.2
348.15 K | 166.6 ± 8.3
353.15 K | 169.1 ± 8.5
358.15 K | 171.7 ± 8.6
363.15 K | 174.4 ± 8.7
368.15 K | 176.8 ± 8.8
373.15 K | 179.2 ± 9
378.15 K | 182 ± 9.1
383.15 K | 185.4 ± 9.3
388.15 K | 190.1 ± 9.5

O=c1c(O)c(-c2ccccc2)oc2ccccc12 [3-hydroxyflavone]
Settings | Molar enthalpy of transition or fusion [kcal/mol] | Normal melting temperature [°C]
[1] | 7.76 ± 0.287 | –
[3] | – | 170.5 ± 0.5

[2]
Settings | molar heat capacity at constant pressure [J/K/mol]
293.15 K | 268.9 ± 13
298.15 K | 270.1 ± 14
303.15 K | 272.8 ± 14
308.15 K | 275.3 ± 14
313.15 K | 278.3 ± 14
318.15 K | 280.8 ± 14
323.15 K | 284.2 ± 14
328.15 K | 287.6 ± 14
333.15 K | 291.5 ± 15
338.15 K | 295.2 ± 15
343.15 K | 298.9 ± 15
348.15 K | 303.2 ± 15
353.15 K | 306.8 ± 15
358.15 K | 310.8 ± 16
363.15 K | 315 ± 16
368.15 K | 319.4 ± 16
373.15 K | 323.7 ± 16
378.15 K | 328 ± 16
383.15 K | 332 ± 17
388.15 K | 336.9 ± 17
393.15 K | 341.6 ± 17
398.15 K | 346.8 ± 17
403.15 K | 351.6 ± 18
408.15 K | 356.3 ± 18
413.15 K | 361.2 ± 18
418.15 K | 366 ± 18
423.15 K | 372.3 ± 19
428.15 K | 379 ± 19
433.15 K | 386 ± 19

O=c1cc(-c2ccccc2)oc2ccc(O)cc12 [6-hydroxyflavone]
Settings | Molar enthalpy of transition or fusion [kcal/mol] | Normal melting temperature [°C]
[1] | 7.75 ± 0.311 | –
[3] | – | 236.2 ± 0.5

[2]
Settings | molar heat capacity at constant pressure [J/K/mol]
293.15 K | 244.4 ± 12
298.15 K | 250.3 ± 12
303.15 K | 255.3 ± 13
308.15 K | 260.4 ± 13
313.15 K | 265.7 ± 13
318.15 K | 271.1 ± 14
323.15 K | 277 ± 14
328.15 K | 282.6 ± 14
333.15 K | 287.5 ± 14
338.15 K | 292.7 ± 15
343.15 K | 297.3 ± 15
348.15 K | 302.4 ± 15
353.15 K | 307.1 ± 15
358.15 K | 312.4 ± 16
363.15 K | 317.2 ± 16
368.15 K | 321.9 ± 16
373.15 K | 326.7 ± 16
378.15 K | 330.6 ± 16
383.15 K | 335.1 ± 17
388.15 K | 339.8 ± 17
393.15 K | 344.4 ± 17
398.15 K | 348.9 ± 17
403.15 K | 353.2 ± 18
408.15 K | 358.3 ± 18
413.15 K | 362.3 ± 18
418.15 K | 365.8 ± 18
423.15 K | 370.3 ± 18
428.15 K | 373.7 ± 19
433.15 K | 376.9 ± 19
438.15 K | 380.8 ± 19
443.15 K | 383.5 ± 19
448.15 K | 385.7 ± 19
453.15 K | 388.4 ± 19
458.15 K | 391.5 ± 20
463.15 K | 394.2 ± 20
468.15 K | 397.1 ± 20
473.15 K | 399.2 ± 20
478.15 K | 402 ± 20
483.15 K | 404.1 ± 20
488.15 K | 406.1 ± 20
493.15 K | 408.4 ± 20
498.15 K | 412 ± 21

c1cc2ccc3cccc4ccc(c1)c2c34 [pyrene]
Settings | Molar enthalpy of transition or fusion [kcal/mol] | Normal melting temperature [°C]
[1] | 4.15 ± 0.155 | –
[3] | – | 150.8 ± 0.8

[2]
Settings | molar heat capacity at constant pressure [J/K/mol]
293.15 K | 221.9 ± 11
298.15 K | 225.8 ± 11
303.15 K | 230.2 ± 12
308.15 K | 234.3 ± 12
313.15 K | 238.7 ± 12
318.15 K | 243 ± 12
323.15 K | 247.5 ± 12
328.15 K | 252.6 ± 13
333.15 K | 258.1 ± 13
338.15 K | 263.6 ± 13
343.15 K | 268.9 ± 13
348.15 K | 274.1 ± 14
353.15 K | 279.8 ± 14
358.15 K | 285.4 ± 14
363.15 K | 291.4 ± 15
368.15 K | 298.2 ± 15
373.15 K | 304.6 ± 15
378.15 K | 310.7 ± 16
383.15 K | 317.5 ± 16
388.15 K | 325.7 ± 16
393.15 K | 333.7 ± 17
398.15 K | 341.5 ± 17
403.15 K | 349.9 ± 18
408.15 K | 359.2 ± 18
413.15 K | 372.2 ± 19

O=c1cc(-c2ccccc2)oc2cc(O)ccc12 [7-hydroxyflavone]
Settings | Molar enthalpy of transition or fusion [kcal/mol] | Normal melting temperature [°C]
[1] | 7.46 ± 0.287 | –
[3] | – | 242.1 ± 1.2

[2]
Settings | molar heat capacity at constant pressure [J/K/mol]
293.15 K | 248.1 ± 12
298.15 K | 253.1 ± 13
303.15 K | 259.1 ± 13
308.15 K | 263.4 ± 13
313.15 K | 268.2 ± 13
318.15 K | 272 ± 14
323.15 K | 276.8 ± 14
328.15 K | 282.1 ± 14
333.15 K | 286 ± 14
338.15 K | 291.4 ± 15
343.15 K | 295.3 ± 15
348.15 K | 299.4 ± 15
353.15 K | 303.6 ± 15
358.15 K | 307.6 ± 15
363.15 K | 312.3 ± 16
368.15 K | 316.2 ± 16
373.15 K | 320.7 ± 16
378.15 K | 324.4 ± 16
383.15 K | 328.2 ± 16
388.15 K | 332.4 ± 17
393.15 K | 336 ± 17
398.15 K | 340.1 ± 17
403.15 K | 343.3 ± 17
408.15 K | 347 ± 17
413.15 K | 351.4 ± 18
418.15 K | 355.2 ± 18
423.15 K | 358.2 ± 18
428.15 K | 361.9 ± 18
433.15 K | 366.3 ± 18
438.15 K | 369.6 ± 18
443.15 K | 372.3 ± 19
448.15 K | 376.7 ± 19
453.15 K | 379.5 ± 19
458.15 K | 382.7 ± 19
463.15 K | 385.8 ± 19
468.15 K | 388.5 ± 19
473.15 K | 390.8 ± 20
478.15 K | 391.9 ± 20
483.15 K | 394 ± 20
488.15 K | 398.1 ± 20
493.15 K | 400.9 ± 20
498.15 K | 406.2 ± 20

O=c1cc(-c2ccccc2)oc2cccc(O)c12 [5-hydroxyflavone]
Settings | Molar enthalpy of transition or fusion [kcal/mol] | Normal melting temperature [°C]
[1] | 6.49 ± 0.21 | –
[3] | – | 158 ± 0.5

[2]
Settings | molar heat capacity at constant pressure [J/K/mol]
293.15 K | 274.6 ± 14
298.15 K | 279.8 ± 14
303.15 K | 285.1 ± 14
308.15 K | 289.4 ± 14
313.15 K | 297 ± 15
318.15 K | 302.8 ± 15
323.15 K | 307 ± 15
328.15 K | 311.2 ± 16
333.15 K | 312.9 ± 16
338.15 K | 315.9 ± 16
343.15 K | 319.5 ± 16
348.15 K | 323.8 ± 16
353.15 K | 328.8 ± 16
358.15 K | 334.4 ± 17
363.15 K | 338.5 ± 17
368.15 K | 344.8 ± 17
373.15 K | 347.9 ± 17
378.15 K | 350.8 ± 18
383.15 K | 355.6 ± 18
388.15 K | 360.1 ± 18
393.15 K | 365.3 ± 18
398.15 K | 369.6 ± 18
403.15 K | 373.8 ± 19
408.15 K | 377.7 ± 19
413.15 K | 382.3 ± 19
418.15 K | 387.6 ± 19
423.15 K | 395.5 ± 20

Nc1ccc2oc(-c3ccccc3)cc(=O)c2c1 [6-aminoflavone]
Settings | Molar enthalpy of transition or fusion [kcal/mol] | Normal melting temperature [°C]
[1] | 7.27 ± 0.263 | –
[3] | – | 198.8 ± 0.5

[2]
Settings | molar heat capacity at constant pressure [J/K/mol]
293.15 K | 272.6 ± 14
298.15 K | 277.9 ± 14
303.15 K | 283.4 ± 14
308.15 K | 287.6 ± 14
313.15 K | 292.2 ± 15
318.15 K | 296.7 ± 15
323.15 K | 301.6 ± 15
328.15 K | 306.3 ± 15
333.15 K | 311.1 ± 16
338.15 K | 316.1 ± 16
343.15 K | 320.4 ± 16
348.15 K | 324.5 ± 16
353.15 K | 328.9 ± 16
358.15 K | 333.6 ± 17
363.15 K | 338.1 ± 17
368.15 K | 342.2 ± 17
373.15 K | 346.1 ± 17
378.15 K | 349.8 ± 18
383.15 K | 353.8 ± 18
388.15 K | 358.5 ± 18
393.15 K | 361.8 ± 18
398.15 K | 367.2 ± 18
403.15 K | 371 ± 19
408.15 K | 374.6 ± 19
413.15 K | 378.3 ± 19
418.15 K | 381.8 ± 19
423.15 K | 385.4 ± 19
428.15 K | 390.1 ± 20
433.15 K | 395.3 ± 20
438.15 K | 400.4 ± 20
443.15 K | 406.4 ± 20
448.15 K | 411.3 ± 21
453.15 K | 418.5 ± 21
458.15 K | 427.8 ± 21
